Results as given in a melting point compilation (Tetko et al.; mined from patent text by program, amines drawn as free bases though some values may be those of a salt).

Compound	melting point [°C]
COc1cc([N+](=O)[O-])c(N)cc1C(=O)Oc1ccccc1	130 to 132
CCCCOc1nc(N)c2[nH]c(=O)n(CCCCNS(=O)(=O)c3ccc(CCC(=O)OC)cc3)c2n1	150 to 152
O=[N+]([O-])c1ncc(Cl)cc1O	97
N#Cc1nn(-c2c(Cl)cc(-c3ccc(C(F)(F)F)cc3)cc2Cl)c(N)c1SC(F)(F)F	181 to 184
O=C1Cc2cc3c(cc2C(c2ccc(F)cc2)=NN1)OCO3	205 to 207
CC(=O)NCc1ccc(Nc2nccc(-c3sc(-c4cccnc4)nc3C)n2)cc1	199 to 201
CN(C)CCc1c[nH]c2ccc(Br)cc12	82 to 85
CNS(=O)(=O)OCCOc1ccccc1	66 to 68
CCOC(=O)c1cc2c(C(F)(F)F)cc(C=O)cc2n1C	140 to 141
COC(=O)CC1c2cc(N(C)C)ccc2N(C(C)=O)C1C (configuration not stated)	122
C/C=C/c1nnc(N2N=C(c3ccc([N+](=O)[O-])c(C)c3)c3cc4c(cc3C[C@H]2C)OCO4)s1	232 to 237
CC(C)OC(=O)C1=C2SCC(=CC(=O)N(C)C)N2CC1	159 to 160
CC(CF)(CF)C(=O)C(Oc1ccc(Cl)cc1)n1cnnc1 (configuration not stated)	119 to 122
N#CC1=Cc2ccccc2OC1	44 to 45
CC(=O)NS(=O)(=O)c1ccc(-n2cc(C)cc2-c2ccc(C)c(C)c2)cc1	192 to 193
CCCC(=O)Oc1cc([N+](=O)[O-])cc([N+](=O)[O-])c1O	65 to 70
Cc1cn(C(C)(C)C(=O)N(C)C)nc1-c1cc(Cl)ccc1Cl	130
C1=C(c2ccccc2)CCN(c2nsc3ccccc23)C1	272 to 273
O=Cc1c[nH]c(=O)c2ccccc12	222 to 223
CC(=O)OC1CSC(Oc2ccc(-c3cc4ccccc4o3)nc2)C(OC(C)=O)C1OC(C)=O (configuration not stated)	179
CCC(Cl)c1nc2c(C(F)(F)F)cccc2c(=O)o1 (configuration not stated)	65 to 70
OCCn1nnnc1S	135 to 137
CC(=O)OC1N=C(c2ccccc2)c2cc(Cl)ccc2-c2c1nc(C)[nH]c2=O (configuration not stated)	> 320
CCCCCCCCNc1nc(NCC(O)C2CC(C)(C)NC(C)(C)C2)nc(NCC(O)C2CC(C)(C)NC(C)(C)C2)n1 (configuration not stated)	117 to 119

Compound	melting point [°C]
CCN(CC)Cc1cc(C(N)=O)ccc1N	129 to 131
CC(=O)NC(=O)CSC(C)=O	140 to 142
C[C@@H]1C[C@](C)(O)[C@H](C)N1c1ccc(C#N)c(C(F)(F)F)c1	115 to 117
NNc1ccnc(-c2ccc([N+](=O)[O-])o2)n1	220 to 222
O=C1NN=CC1=CNCCC(F)=C(F)F	126 to 130
CC(C)N(CCCC1CCN(CCNC(=O)N2c3ccccc3C(=O)Nc3cccnc32)CC1)C(C)C	184
Cc1c(Br)cc(C(C)(C)C)c(O)c1C1=Nc2cc(Cl)ccc2S(=O)(=O)N1	270 to 271
Brc1ccc2c(c1)COC(N[C@@H]1CCc3ccccc31)=N2	123
O=C(O)c1cccc(Nc2nccc(-c3cccnc3)n2)c1	291 to 295
CCN(CC)C(=O)c1nn(-c2cccc(OC)c2)c(=O)c2c1c1ccc(Cl)cc1n2C	208
COc1ccc(C2(C)CCc3cc(OC)ccc3C2CCCCCCO)cc1 (configuration not stated)	76 to 83
CCCCN(C(=O)c1cc(C(C)(C)C)c(OC(=O)c2cc(C(C)(C)C)c(O)c(C(C)(C)C)c2)c(C(C)(C)C)c1)C1CC(C)(C)N(OC(C)=O)C(C)(C)C1	230 to 232
CS(=O)c1ccc(-c2cn3c(c2-c2ccccc2)CCC3)cc1 (configuration not stated)	67 to 68
Clc1ccc2c(c1)N=C(NCCCn1ccnc1)c1ccccc1N2	228 to 230
CC(=O)NC(C)Cc1cc2c(cc1CC(=O)O)OCO2 (configuration not stated)	195 to 197
Cc1cc(C#N)sc1-c1ccc2c(c1)C(C)(C)OC(C(F)(F)F)N2 (configuration not stated)	97 to 98
CCn1c(=O)c2c(N)n[nH]c2n(CC)c1=O	246 to 248
CCOC(=O)C1=Cc2cc(C#N)ccc2OC1C(F)(F)F (configuration not stated)	102 to 106
O=c1c2cc(OCc3ccccc3)ccc2[nH]c2c([N+](=O)[O-])ccc(Cl)c12	216 to 217
Cc1cnc(-c2c(F)cccc2F)nn1	90 to 93
O=C(NC[C@@H]1CN2C(=O)C[C@H]2O1)c1ccccc1 (racemic)	115 to 116
CCCCCOc1ccc(C(=O)NCCCCCCCNC(=O)c2ccc(OCCCCC)cc2)cc1	155 to 156
Nc1ccc2c(c1)C(=O)N(c1ccc(C(=O)O)cc1)C2=O	270 to 271
O=C(c1ccc(-c2ccccc2)cc1)N1Cc2ccccc2Oc2ccccc21	93 to 95

Compound	melting point [°C]
CC1(C(F)(F)F)C(=O)NC(=O)NC1=O	205 to 206
Nc1nc2ccc(S(=O)(=O)n3c(CCC(=O)O)cc4nc(Cl)ccc43)cc2s1	> 260
Cn1c2c(c3ccccc3c1=O)C(=O)c1cc3c(cc1-2)OCO3	310 to 312
CC1(C)c2ccccc2N2Cc3cc(N=Nc4ccc([N+](=O)[O-])cc4)ccc3OC21C (configuration not stated)	156
CC(C)NCCNc1nc(Nc2cccc(NS(C)(=O)=O)c2)nc2[nH]ccc12	127 to 131
CNC(=O)N1CCC(=NO)c2cc(Cl)ccc21	211 to 212
C=CCN(CC=C)c1nc(NCC(=O)OC)n2oc(=O)nc2n1	173 to 174
O=[N+]([O-])c1ccc(F)c(-c2cccs2)c1	65
CC(C)(C)c1ccc(-c2cc(-c3ccccc3)c(-c3ccccc3)s2)cc1	108 to 112
O=C(O)c1c[nH]c2cc(C3CC3)nn2c1=O	275 to 278
COC(=O)c1c(C(=O)O)n(-c2ccc(OC(C)C)cc2)c2ccc(Oc3ccc(C(F)(F)F)cc3)cc12	191
N#Cc1cccnc1N1CCN(CC(=O)Nc2cc(C(F)(F)F)ccc2F)CC1	130 to 133
COc1cccc(Cl)c1CC(=O)O	164 to 165
CCCc1c(OCCCOc2ccc3ccccc3c2)ccc2c1OC(CCC(=O)O)(CCC(=O)O)CC2=O	158
COc1ccc(C(=O)Nc2ccccc2)cc1NCc1cccs1	195 to 197
CCc1ncnc(NC2CCC(c3ccc(Oc4ccc(C(F)(F)F)cn4)cc3)CC2)c1Cl (configuration not stated)	114 to 116
Nc1nc(Cl)cnc1-c1cc(Cl)cc(Cl)c1Cl	211 to 214
CC(C)(C)c1cc(C2SCC(=O)N2CCC(=O)O)cc(C(C)(C)C)c1O (configuration not stated)	164 to 165
O=c1cc(-c2ccc(OCCOCCOc3ccc(-c4cc(=O)c5c(O)cc(O)cc5o4)cc3)cc2)oc2cc(O)cc(O)c12	268 to 270
COc1ccc(-c2c3c(cc4ccc(OCc5ccccc5)cc24)C(=O)NC3=O)cc1	208 to 210
Cc1cnc(NC2CCC(CCN3CCN(c4ccccc4)CC3)CC2)nc1 (configuration not stated)	190
N#CCCCc1ccc2ccccc2c1O	76 to 78
COc1cc(OC)c(C)c(C(=O)NCC23CC4CC(CC(C4)C2)C3)c1	173 to 175
CN(C)Cc1cc(Nc2nncc3ccccc23)cc(CN(C)C)c1O	195
